Columns and labels:
Settings in all cases: 250 g/ha, evaluated after 13 days, five-point scale
[1] = system: Ipomoea hederacea (IPOHE); test: Pre-emergence herbicidal glasshouse test; type: in vivo
[2] = system: Echinochloa crus-galli (ECHCG); test: Post-emergence herbicidal glasshouse test; type: in vivo
[3] = system: Echinochloa crus-galli (ECHCG); test: Pre-emergence herbicidal glasshouse test; type: in vivo
Setaria faberi (SETFA) [4] = test: Pre-emergence herbicidal glasshouse test; type: in vivo
AMAPA [5] = test: Post-emergence herbicidal glasshouse test; type: in vivo, Amaranthus tuberculatus
Setaria faberi (SETFA) [6] = test: Post-emergence herbicidal glasshouse test; type: in vivo
[7] = system: Amaranthus retoflexus (AMARE); test: Pre-emergence herbicidal glasshouse test; type: in vivo
[8] = system: Amaranthus retoflexus (AMARE); test: Post-emergence herbicidal glasshouse test; type: in vivo
[9] = system: Ipomoea hederacea (IPOHE); test: Post-emergence herbicidal glasshouse test; type: in vivo
AMAPA [10] = test: Pre-emergence herbicidal glasshouse test; type: in vivo, Amaranthus tuberculatus

Structure (SMILES)	percentage damage caused to the plant, IPOHE [1]	percentage damage caused to the plant, ECHCG [2]	percentage damage caused to the plant, ECHCG [3]	percentage damage caused to the plant, SETFA (Setaria faberi (SETFA) [4])	percentage damage caused to the plant, AMAPA (AMAPA [5])	percentage damage caused to the plant, SETFA (Setaria faberi (SETFA) [6])	percentage damage caused to the plant, AMARE [7]	percentage damage caused to the plant, AMARE [8]	percentage damage caused to the plant, IPOHE [9]	percentage damage caused to the plant, AMAPA (AMAPA [10])
FC(F)(F)c1ncc2c(Oc3ncc(Cl)cn3)cccc2n1 [Compound 1.002, 5-(5-chloropyrimidin-2-yl)oxy-2-(trifluoromethyl)quinazoline]	5 (5=81-100%)	5 (5=81-100%)	5 (5=81-100%)	5 (5=81-100%)	5 (5=81-100%)	4 (4=61-80%)	5 (5=81-100%)	5 (5=81-100%)	4 (4=61-80%)	5 (5=81-100%)
FC(F)(F)c1ccc2c(Oc3ncc(Cl)cn3)cccc2n1 [Compound 1.020, 5-(5-chloropyrimidin-2-yl)oxy-2 (trifluoromethyl)quinoline]	4 (4=61-80%)	4 (4=61-80%)	5 (5=81-100%)	5 (5=81-100%)	5 (5=81-100%)	5 (5=81-100%)	5 (5=81-100%)	5 (5=81-100%)	4 (4=61-80%)	5 (5=81-100%)
N#Cc1cc(Cl)cnc1Oc1cccc2nc(C(F)(F)F)ncc12 [Compound 1.007]	2 (2=21-40%)	3 (3=41-60%)	4 (4=61-80%)	5 (5=81-100%)		4 (4=61-80%)	4 (4=61-80%)	2 (2=21-40%)	2 (2=21-40%)	4 (4=61-80%)
Fc1cnc(Oc2cccc3nc(C(F)(F)F)ccc23)nc1 [Compound 1.042]	5 (5=81-100%)	4 (4=61-80%)	5 (5=81-100%)		5 (5=81-100%)		5 (5=81-100%)	5 (5=81-100%)	4 (4=61-80%)	5 (5=81-100%)
N#Cc1ccc(Oc2ncc(Cl)cn2)c2cnc(C(F)(F)F)nc12 [Compound 1.065]	1 (1=0-20%)	1 (1=0-20%)	1 (1=0-20%)		1 (1=0-20%)		1 (1=0-20%)	1 (1=0-20%)	2 (2=21-40%)	1 (1=0-20%)
Cc1ccc(Oc2ncc(F)cn2)c2cnc(C(F)F)nc12 [Compound 1.027]	1 (1=0-20%)	1 (1=0-20%)	1 (1=0-20%)		2 (2=21-40%)		2 (2=21-40%)	2 (2=21-40%)	2 (2=21-40%)	2 (2=21-40%)
Cc1cnc(Oc2cccc3nc(C(F)(F)Cl)ncc23)nc1 [Compound 1.056, 2-[chloro(difluoro)methyl]-5-(5-methylpyrimidin-2-yl)oxy-quinazoline]	5 (5=81-100%)	3 (3=41-60%)	5 (5=81-100%)		4 (4=61-80%)		5 (5=81-100%)	2 (2=21-40%)	4 (4=61-80%)	5 (5=81-100%)
Cc1ccc(Oc2ncc(Br)cn2)c2ccc(C(F)(F)F)nc12 [Compound 1.026]	1 (1=0-20%)	1 (1=0-20%)	1 (1=0-20%)		2 (2=21-40%)		1 (1=0-20%)	2 (2=21-40%)	1 (1=0-20%)	1 (1=0-20%)
Fc1cnc(Oc2ccc(Cl)c3nc(C(F)F)ncc23)nc1 [Compound 1.046]	1 (1=0-20%)	1 (1=0-20%)	1 (1=0-20%)		1 (1=0-20%)		5 (5=81-100%)	2 (2=21-40%)	2 (2=21-40%)	4 (4=61-80%)
Cc1ccc(Oc2ncc(Cl)cn2)c2cnc(C(F)(F)F)nc12 [Compound 1.028]	1 (1=0-20%)	1 (1=0-20%)	2 (2=21-40%)		3 (3=41-60%)		5 (5=81-100%)	2 (2=21-40%)	2 (2=21-40%)	5 (5=81-100%)
FC(F)(F)c1ncc2c(Oc3ncc(C4CC4)cn3)cccc2n1 [Compound 1.012]	1 (1=0-20%)	1 (1=0-20%)	1 (1=0-20%)		1 (1=0-20%)		1 (1=0-20%)	1 (1=0-20%)	1 (1=0-20%)	1 (1=0-20%)
COc1ncc2c(Oc3ncc(F)cn3)ccc(Br)c2n1 [Compound 1.030]	1 (1=0-20%)	1 (1=0-20%)	1 (1=0-20%)		3 (3=41-60%)		1 (1=0-20%)	2 (2=21-40%)	1 (1=0-20%)	1 (1=0-20%)
Cc1cnc(Oc2ccc(C)c3nc(C(F)(F)Cl)ncc23)nc1 [Compound 1.036]	1 (1=0-20%)	1 (1=0-20%)	1 (1=0-20%)		3 (3=41-60%)		4 (4=61-80%)	2 (2=21-40%)	1 (1=0-20%)	3 (3=41-60%)
Fc1cnc(Oc2ccc(Cl)c3nc(C(F)(F)Cl)ncc23)nc1 [Compound 1.043]	1 (1=0-20%)	1 (1=0-20%)	1 (1=0-20%)		3 (3=41-60%)		4 (4=61-80%)	3 (3=41-60%)	2 (2=21-40%)	4 (4=61-80%)
Cc1cnc(Oc2ccc(Cl)c3nc(C(F)(F)Cl)ncc23)nc1 [Compound 1.037]	1 (1=0-20%)	1 (1=0-20%)	1 (1=0-20%)		2 (2=21-40%)		5 (5=81-100%)	2 (2=21-40%)	1 (1=0-20%)	4 (4=61-80%)
Cc1ccc(Oc2ncc(F)cn2)c2cnc(C(F)(F)Cl)nc12 [Compound 1.049]	1 (1=0-20%)	1 (1=0-20%)	1 (1=0-20%)		3 (3=41-60%)		1 (1=0-20%)	2 (2=21-40%)	2 (2=21-40%)	1 (1=0-20%)
Cc1nc(C(F)F)nc2cccc(Oc3ncc(Br)cn3)c12 [Compound 1.051]	1 (1=0-20%)	1 (1=0-20%)	1 (1=0-20%)		1 (1=0-20%)		1 (1=0-20%)	1 (1=0-20%)	1 (1=0-20%)	1 (1=0-20%)
COc1nc(C)c2c(Oc3ncc(Cl)cn3)cccc2n1 [Compound 1.024]	1 (1=0-20%)	1 (1=0-20%)	1 (1=0-20%)		2 (2=21-40%)		3 (3=41-60%)	1 (1=0-20%)	1 (1=0-20%)	3 (3=41-60%)
